Results on six compounds are retold here after ChEMBL document CHEMBL5465560, “Selectivity Literature for EUbOPEN Chemogenomic Library” (2024).

For assay [1], the target named is T1, N-lysine methyltransferase KMT5A (Homo sapiens) (UniProt Q9NQR1).
T1 sequence (whole entry): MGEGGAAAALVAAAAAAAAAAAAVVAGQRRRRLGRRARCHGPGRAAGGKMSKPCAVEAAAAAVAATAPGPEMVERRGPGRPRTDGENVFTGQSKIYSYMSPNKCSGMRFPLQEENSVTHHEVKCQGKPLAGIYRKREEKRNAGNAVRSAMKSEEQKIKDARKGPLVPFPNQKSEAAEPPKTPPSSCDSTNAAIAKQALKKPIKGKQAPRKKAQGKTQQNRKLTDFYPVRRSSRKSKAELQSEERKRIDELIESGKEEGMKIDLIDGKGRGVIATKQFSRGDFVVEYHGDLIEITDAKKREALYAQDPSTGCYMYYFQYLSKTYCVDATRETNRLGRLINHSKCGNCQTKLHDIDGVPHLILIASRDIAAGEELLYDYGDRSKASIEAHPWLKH
As to the kind of experiment: Selectivity interaction (Methyltransferase screen (radiometric assays, panel of 8 PRMTs, 21 protein lysine methyltransferases, 3 DNA methyltransferases, and one RNA methyltransferase)) EUB0000271b SETD8.

Assay [2] has as its target Phosphatidylinositol 4,5-bisphosphate 3-kinase catalytic subunit beta isoform (Homo sapiens) (UniProt P42338). As to the kind of experiment: Selectivity interaction (KinomeScan (DiscoverX)) EUB0000045b PIK3CB.
The target of assay [3] is Serine/threonine-protein kinase 38 (Homo sapiens) (UniProt Q15208). As to the kind of experiment: Selectivity interaction (KinomeScan (DiscoverX)) EUB0000045b STK38.
Serine/threonine-protein kinase 38 (Homo sapiens), sequence (Q15208 2-465 limits assumed): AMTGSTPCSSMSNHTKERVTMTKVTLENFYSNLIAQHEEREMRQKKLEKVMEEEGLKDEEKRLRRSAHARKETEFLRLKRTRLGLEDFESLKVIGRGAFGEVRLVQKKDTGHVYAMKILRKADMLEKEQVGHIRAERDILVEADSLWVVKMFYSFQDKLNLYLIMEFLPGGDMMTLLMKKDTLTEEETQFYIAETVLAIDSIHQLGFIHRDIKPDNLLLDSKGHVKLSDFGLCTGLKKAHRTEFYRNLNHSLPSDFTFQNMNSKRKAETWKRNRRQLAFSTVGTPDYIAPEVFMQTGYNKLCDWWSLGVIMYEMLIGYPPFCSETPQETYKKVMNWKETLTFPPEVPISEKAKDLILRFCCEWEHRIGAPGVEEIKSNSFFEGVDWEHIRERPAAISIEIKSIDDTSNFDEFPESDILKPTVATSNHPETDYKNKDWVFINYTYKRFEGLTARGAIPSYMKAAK
Assay [4] concerns Fibroblast growth factor receptor 1 (Homo sapiens), P11362 [V561M]. Put plainly: Selectivity interaction (LanthaScreen Eu Kinase Binding Assay) EUB0001632a FGFR1. To be noted: at 10 µM.
Fibroblast growth factor receptor 1 (Homo sapiens), P11362 [V561M], sequence (P11362 whole entry V561M): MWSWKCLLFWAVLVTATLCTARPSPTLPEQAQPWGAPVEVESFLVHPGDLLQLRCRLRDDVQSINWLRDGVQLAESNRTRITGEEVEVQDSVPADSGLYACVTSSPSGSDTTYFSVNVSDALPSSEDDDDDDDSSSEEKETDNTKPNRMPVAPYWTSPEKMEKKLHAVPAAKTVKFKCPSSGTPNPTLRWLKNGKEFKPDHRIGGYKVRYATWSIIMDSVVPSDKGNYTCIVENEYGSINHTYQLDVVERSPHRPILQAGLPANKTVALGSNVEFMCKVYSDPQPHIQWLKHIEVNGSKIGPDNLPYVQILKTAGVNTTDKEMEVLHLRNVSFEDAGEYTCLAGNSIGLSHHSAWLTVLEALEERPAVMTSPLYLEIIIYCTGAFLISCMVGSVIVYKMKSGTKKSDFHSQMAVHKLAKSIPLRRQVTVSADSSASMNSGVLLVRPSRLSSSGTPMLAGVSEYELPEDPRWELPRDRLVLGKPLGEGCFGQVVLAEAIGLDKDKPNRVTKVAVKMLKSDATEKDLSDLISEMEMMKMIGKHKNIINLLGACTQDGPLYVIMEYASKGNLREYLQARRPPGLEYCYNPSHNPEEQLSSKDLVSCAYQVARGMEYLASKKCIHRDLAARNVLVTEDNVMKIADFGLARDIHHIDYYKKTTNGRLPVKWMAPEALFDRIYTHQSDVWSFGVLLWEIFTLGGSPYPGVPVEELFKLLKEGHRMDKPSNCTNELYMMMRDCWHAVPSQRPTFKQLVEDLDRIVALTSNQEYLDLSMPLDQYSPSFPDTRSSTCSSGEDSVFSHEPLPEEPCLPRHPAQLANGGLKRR
For assay [5], the target named is Calcium/calmodulin-dependent protein kinase type II subunit gamma (Homo sapiens) (UniProt Q13555). As to the kind of experiment: Selectivity interaction (LanthaScreen Eu Kinase Binding Assay) EUB0001632a CAMK2G. The following applies: at 10 µM.
Calcium/calmodulin-dependent protein kinase type II subunit gamma (Homo sapiens), sequence (Q13555 whole entry): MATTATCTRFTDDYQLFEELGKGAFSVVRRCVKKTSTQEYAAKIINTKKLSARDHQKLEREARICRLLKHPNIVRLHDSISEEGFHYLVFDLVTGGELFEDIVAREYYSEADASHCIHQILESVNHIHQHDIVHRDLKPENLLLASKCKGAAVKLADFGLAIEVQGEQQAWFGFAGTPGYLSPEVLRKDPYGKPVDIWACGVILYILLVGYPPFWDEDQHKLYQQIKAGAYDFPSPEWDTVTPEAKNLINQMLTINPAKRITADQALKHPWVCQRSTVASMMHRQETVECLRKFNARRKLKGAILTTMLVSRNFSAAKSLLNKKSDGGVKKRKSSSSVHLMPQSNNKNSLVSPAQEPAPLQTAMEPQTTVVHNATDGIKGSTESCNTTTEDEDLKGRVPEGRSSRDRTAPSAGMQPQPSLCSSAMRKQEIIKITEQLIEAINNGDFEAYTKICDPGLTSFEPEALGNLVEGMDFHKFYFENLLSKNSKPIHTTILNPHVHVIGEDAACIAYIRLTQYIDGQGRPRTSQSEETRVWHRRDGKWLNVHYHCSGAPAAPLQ
The target in assay [6] is T2, Histone-lysine N-methyltransferase SUV39H1 (Homo sapiens) (UniProt O43463).
T2 sequence (whole entry): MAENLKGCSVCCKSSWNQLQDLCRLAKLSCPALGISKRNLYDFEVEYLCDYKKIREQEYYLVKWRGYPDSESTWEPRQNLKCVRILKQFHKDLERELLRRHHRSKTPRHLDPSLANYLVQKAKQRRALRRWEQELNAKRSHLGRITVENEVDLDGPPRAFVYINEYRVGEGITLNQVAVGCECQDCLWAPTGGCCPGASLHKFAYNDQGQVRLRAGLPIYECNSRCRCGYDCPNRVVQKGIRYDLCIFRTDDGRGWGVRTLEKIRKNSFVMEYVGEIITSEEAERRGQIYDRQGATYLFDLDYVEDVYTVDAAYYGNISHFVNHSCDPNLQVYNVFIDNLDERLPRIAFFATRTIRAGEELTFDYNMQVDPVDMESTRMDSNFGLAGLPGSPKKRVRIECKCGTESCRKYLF
As to the kind of experiment: Selectivity interaction (Methyltransferase screen (radiometric assays, panel of 8 PRMTs, 21 protein lysine methyltransferases, 3 DNA methyltransferases, and one RNA methyltransferase)) EUB0000272b SUV39H1.

Assay [7] deals with Mitogen-activated protein kinase 8 (Homo sapiens, UniProt P45983). As to the kind of experiment: Selectivity interaction (ActivX KiNativ screen (kinase selectivity in THP-1 cell lysates)) EUB0000639a MAPK8. The class given is subcellular. The following applies: lysate.
Mitogen-activated protein kinase 8, sequence (P45983 whole entry, the tested form may be a part): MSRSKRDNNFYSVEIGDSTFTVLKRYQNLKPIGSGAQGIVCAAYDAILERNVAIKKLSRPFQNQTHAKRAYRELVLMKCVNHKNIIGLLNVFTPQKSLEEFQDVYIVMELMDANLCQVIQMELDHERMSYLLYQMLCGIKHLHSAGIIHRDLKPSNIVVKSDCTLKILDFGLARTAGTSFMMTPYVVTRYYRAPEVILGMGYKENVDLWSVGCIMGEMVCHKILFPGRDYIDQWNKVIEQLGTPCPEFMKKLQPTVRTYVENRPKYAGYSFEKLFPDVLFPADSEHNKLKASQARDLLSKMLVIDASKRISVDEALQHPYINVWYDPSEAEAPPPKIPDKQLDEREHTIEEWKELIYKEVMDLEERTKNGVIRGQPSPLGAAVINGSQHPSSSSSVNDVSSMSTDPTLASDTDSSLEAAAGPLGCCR
For assay [8], the target named is T3, Phosphatidylinositol 3-kinase C2 domain-containing subunit gamma (Homo sapiens) (UniProt O75747).
T3 sequence (whole entry): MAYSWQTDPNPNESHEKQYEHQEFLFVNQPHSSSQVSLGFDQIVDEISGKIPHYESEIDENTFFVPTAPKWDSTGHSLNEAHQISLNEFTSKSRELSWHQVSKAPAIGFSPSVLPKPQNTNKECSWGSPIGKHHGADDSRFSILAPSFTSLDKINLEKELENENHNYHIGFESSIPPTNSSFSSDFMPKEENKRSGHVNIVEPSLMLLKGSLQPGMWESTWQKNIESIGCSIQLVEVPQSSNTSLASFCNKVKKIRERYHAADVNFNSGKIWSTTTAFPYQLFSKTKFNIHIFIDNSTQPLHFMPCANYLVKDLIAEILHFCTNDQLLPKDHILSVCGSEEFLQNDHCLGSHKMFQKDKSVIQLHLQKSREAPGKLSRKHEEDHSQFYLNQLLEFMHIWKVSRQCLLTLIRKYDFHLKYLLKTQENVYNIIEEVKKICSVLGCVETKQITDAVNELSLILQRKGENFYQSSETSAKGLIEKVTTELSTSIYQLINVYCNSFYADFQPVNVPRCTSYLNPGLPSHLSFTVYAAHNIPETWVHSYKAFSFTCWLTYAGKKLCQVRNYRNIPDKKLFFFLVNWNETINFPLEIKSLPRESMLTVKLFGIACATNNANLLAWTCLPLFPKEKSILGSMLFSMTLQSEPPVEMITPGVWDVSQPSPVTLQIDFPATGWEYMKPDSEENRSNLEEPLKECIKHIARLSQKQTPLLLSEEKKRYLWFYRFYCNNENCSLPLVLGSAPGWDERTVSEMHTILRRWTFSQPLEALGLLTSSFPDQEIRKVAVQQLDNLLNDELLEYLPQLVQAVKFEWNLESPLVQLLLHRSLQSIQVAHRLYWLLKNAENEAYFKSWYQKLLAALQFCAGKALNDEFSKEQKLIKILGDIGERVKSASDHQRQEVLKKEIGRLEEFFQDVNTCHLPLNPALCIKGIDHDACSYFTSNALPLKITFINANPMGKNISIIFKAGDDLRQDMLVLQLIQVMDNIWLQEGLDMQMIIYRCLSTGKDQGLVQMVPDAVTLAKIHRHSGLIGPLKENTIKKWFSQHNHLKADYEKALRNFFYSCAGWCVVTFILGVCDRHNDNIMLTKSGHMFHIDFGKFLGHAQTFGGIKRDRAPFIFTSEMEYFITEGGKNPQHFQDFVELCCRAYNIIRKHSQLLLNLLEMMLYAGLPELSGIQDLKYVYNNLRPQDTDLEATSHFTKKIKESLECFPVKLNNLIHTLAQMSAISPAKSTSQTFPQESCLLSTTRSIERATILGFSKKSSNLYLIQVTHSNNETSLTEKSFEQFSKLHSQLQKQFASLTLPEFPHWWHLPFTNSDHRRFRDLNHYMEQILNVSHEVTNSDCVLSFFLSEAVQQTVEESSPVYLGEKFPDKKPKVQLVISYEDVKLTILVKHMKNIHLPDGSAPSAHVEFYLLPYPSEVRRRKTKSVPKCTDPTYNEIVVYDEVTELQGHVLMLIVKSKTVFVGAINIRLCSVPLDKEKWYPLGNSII
Put plainly: Selectivity interaction (KinomeScan (DiscoverX)) EUB0000618a PIK3C2G. The following applies: at 10 µM.

Phosphatidylinositol 4,5-bisphosphate 3-kinase catalytic subunit beta isoform (Homo sapiens), sequence (P42338 whole entry, looked up, canonical isoform): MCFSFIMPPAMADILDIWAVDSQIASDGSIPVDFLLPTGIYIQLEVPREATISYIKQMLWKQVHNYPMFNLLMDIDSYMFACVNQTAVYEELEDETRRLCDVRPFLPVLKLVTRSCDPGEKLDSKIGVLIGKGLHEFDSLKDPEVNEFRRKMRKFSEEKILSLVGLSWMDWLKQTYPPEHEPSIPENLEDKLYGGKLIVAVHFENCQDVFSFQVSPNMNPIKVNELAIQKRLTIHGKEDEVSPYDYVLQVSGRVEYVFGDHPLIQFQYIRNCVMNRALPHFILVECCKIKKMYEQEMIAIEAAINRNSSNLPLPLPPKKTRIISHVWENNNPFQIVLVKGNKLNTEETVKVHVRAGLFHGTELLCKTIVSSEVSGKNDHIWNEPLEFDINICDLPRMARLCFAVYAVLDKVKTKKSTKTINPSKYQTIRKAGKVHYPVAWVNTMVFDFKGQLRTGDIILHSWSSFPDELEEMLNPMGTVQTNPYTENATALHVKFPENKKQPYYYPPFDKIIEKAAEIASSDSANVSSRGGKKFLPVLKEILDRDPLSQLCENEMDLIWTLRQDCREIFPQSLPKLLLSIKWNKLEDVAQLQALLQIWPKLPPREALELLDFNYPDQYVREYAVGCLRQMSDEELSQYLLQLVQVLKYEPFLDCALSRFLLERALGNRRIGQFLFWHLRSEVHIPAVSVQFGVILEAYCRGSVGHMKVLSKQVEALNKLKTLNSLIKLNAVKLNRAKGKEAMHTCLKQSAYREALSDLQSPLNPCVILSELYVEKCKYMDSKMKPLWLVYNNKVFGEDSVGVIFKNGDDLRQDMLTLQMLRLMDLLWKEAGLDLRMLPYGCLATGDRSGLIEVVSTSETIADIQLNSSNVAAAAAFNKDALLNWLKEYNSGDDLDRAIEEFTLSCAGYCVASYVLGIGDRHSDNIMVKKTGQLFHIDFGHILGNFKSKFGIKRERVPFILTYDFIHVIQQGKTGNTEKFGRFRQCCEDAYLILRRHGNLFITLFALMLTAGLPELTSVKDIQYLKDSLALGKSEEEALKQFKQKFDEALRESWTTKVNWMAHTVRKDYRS

With `Cc1cc(C)cc([C@@H]2c3cc(C)ccc3NC(=O)CN2C(=O)c2ccc(Br)s2)c1`, the % of activity came to 101% in assay [1] (at 1 µM) and 92% in assay [1] (at 10 µM).

For `C=CC(=O)Nc1cc(-n2c(=O)ccc3cnc4ccc(-c5ccc(NS(C)(=O)=O)cc5)cc4c32)ccc1C`, the % of control turned out to be 75% in assay [2] (at 1 µM), 44% in assay [2] (at 10 µM), 100% in assay [3] (at 1 µM) and 100% in assay [3] (at 10 µM).

For `Cn1cc(-n2cnc3c(NCc4nc5cc(Cl)c(Cl)cc5[nH]4)nc(N4CCOCC4)nc32)cn1`, the figures for the % of inhibition in assay [4] and in assay [5] were -8.96% and -8.35%, respectively.

Consider `Cc1cc(C)cc([C@H]2c3cc(C)ccc3NC(=O)CN2C(=O)c2ccc(Br)s2)c1`, for which the % of activity came to 100% in assay [6] (at 1 µM) and 96.7% in assay [6] (at 10 µM).

Regarding `CC[C@@H]1[C@H](F)C(=O)N[C@@H]1COc1nccc2cc(C(N)=O)c(OC)cc12` [ZIMLOVISERTIB], the % of inhibition in assay [7] (at 0.01 µM) was 13.3%; in assay [7] (at 0.04 µM), -1.4%; in assay [7] (at 0.2 µM), 1.6%; in assay [7] (at 1 µM), 27.7%; in assay [7] (at 5 µM), 57.5%.

The compound `O[C@H]1CC[C@H](Nc2ncc3nc(Nc4c(F)cc(F)cc4F)n([C@H]4CCOC4)c3n2)CC1` came in with a % of control in assay [8] of 93%.
